# Measured values reported in ChEMBL document CHEMBL1949544, “Proteasome inhibitors from Neoboutonia melleri” (J Nat Prod, 2012).
# Assays:
# DLD-1 [1] = experiment: Inhibition of proteasome activity in human DLD1 cells expressing 4-ubiquitin luciferase reporter protein assessed increase of luciferase signal at 5 uM after 7 hrs relative to control
# DLD-1 [2] = experiment: Inhibition of proteasome activity in human DLD1 cells expressing 4-ubiquitin luciferase reporter protein assessed increase of luciferase signal at 1 uM after 7 hrs relative to control
# DLD-1 [3] = experiment: Inhibition of proteasome activity in human DLD1 cells expressing 4-ubiquitin luciferase reporter protein assessed increase of luciferase signal at 10 uM after 7 hrs relative to control
# DLD-1 [4] = experiment: Inhibition of proteasome activity in human DLD1 cells expressing 4-ubiquitin luciferase reporter protein assessed increase of luciferase signal at 0.5 uM after 7 hrs relative to control
SMILES,fold change (FC) (DLD-1 [1]),fold change (FC) (DLD-1 [2]),fold change (FC) (DLD-1 [3]),fold change (FC) (DLD-1 [4])
C=C(C(=O)[C@H](OC(C)=O)[C@@H](C)[C@H]1[C@@H](OC(C)=O)C[C@@]2(C)[C@@H]3CC[C@H]4[C@H](C)C(=O)[C@H](O)[C@H]5C[C@]54C3=CC[C@]12C)[C@@H](C)CO,1.9,1.2,15,–
C=C(C(=O)[C@H](O)[C@@H](C)[C@H]1[C@@H](OC(C)=O)C[C@@]2(C)[C@@H]3CC[C@H]4[C@H](C)C(=O)C=C[C@@]45C[C@@]35CC[C@]12C)[C@@H](C)CO,28,45,2.9,1.4
C=C(C(=O)C1(O)O[C@H]2C[C@@]3(C)[C@@H]4CC[C@H]5[C@H](C)C(=O)C=C[C@@]56C[C@@]46CC[C@]3(C)[C@H]2[C@@H]1C)[C@@H](C)CO (some centres not stated),1,0.9,2.6,–
C=C(C(=O)[C@H](OC(C)=O)[C@@H](C)[C@H]1[C@@H](OC(C)=O)C[C@@]2(C)[C@@H]3[C@H]4O[C@H]4[C@H]4[C@H](C)C(=O)C=C[C@@]45C[C@@]35CC[C@]12C)[C@@H](C)CO,72,2.8,15,–
C=C(C(=O)[C@H](O)[C@@H](C)[C@H]1[C@@H](OC(C)=O)C[C@@]2(C)[C@@H]3CC[C@H]4[C@H](C)C(=O)C=C[C@]45C[C@]35CC[C@]12C)[C@@H](C)CO,9.1,0.9,–,0.9
C=C1C(C)CO[C@@]12C[C@@H](C)[C@H]1[C@H](C[C@@]3(C)[C@@H]4CC[C@H]5[C@](C)(C(=O)O)[C@@H](O)CC[C@@]56C[C@@]46CC[C@]13C)O2 (some centres not stated),1.3,1.2,1.3,–
C=C(C(=O)C[C@@H](C)[C@H]1CC[C@@]2(C)[C@@H]3CC[C@H]4[C@](C)(C(=O)O[C@@H]5O[C@@H](C)[C@H](O)[C@@H](O)[C@H]5O)[C@@H](O)CC[C@@]45C[C@@]35CC[C@]12C)C(C)C,1,1.1,1.1,–
C=C(C(=O)[C@H](OC(C)=O)[C@@H](C)[C@H]1[C@@H](OC(C)=O)C[C@@]2(C)[C@@H]3C[C@@H](O)[C@H]4[C@H](C)C(=O)C=C[C@@]45C[C@@]35CC[C@]12C)[C@@H](C)CO,31,5.1,–,1.2
CC(C)=CC(=O)C[C@@H](C)[C@H]1CC[C@@]2(C)[C@@H]3CC[C@H]4[C@](C)(C(=O)O[C@@H]5O[C@@H](C)[C@H](O)[C@@H](O)[C@H]5O)[C@@H](O)CC[C@@]45C[C@@]35CC[C@]12C,1,1,1.1,–
C=C(C(=O)[C@H](OC(C)=O)[C@@H](C)[C@H]1[C@@H](OC(C)=O)C[C@@]2(C)[C@@H]3CC[C@H]4[C@H](C)C(=O)CC[C@@]45C[C@@]35CC[C@]12C)[C@@H](C)CO,45,0.9,48,–
C=C(C(=O)[C@H](O)[C@@H](C)[C@H]1[C@@H](OC(C)=O)C[C@@]2(C)[C@@H]3CC[C@H]4[C@](C)(C(=O)O)[C@@H](O)CC[C@@]45C[C@@]35CC[C@]12C)C(C)C,1.3,1.2,1.8,–
C=C(C(=O)C[C@@H](C)[C@H]1[C@@H](OC(C)=O)C[C@@]2(C)[C@@H]3CC[C@H]4[C@](C)(C(=O)O)[C@@H](O)CC[C@@]45C[C@@]35CC[C@]12C)C(C)CO (some centres not stated),1.3,1,2.8,–

# Results, then the compound that gave them:
fold change (FC) (DLD-1 [1]),fold change (FC) (DLD-1 [2]),fold change (FC) (DLD-1 [3]),fold change (FC) (DLD-1 [4]),SMILES
35,1.1,–,–,C=C(C(=O)[C@H](O)[C@@H](C)[C@H]1[C@@H](OC(C)=O)C[C@@]2(C)[C@@H]3C[C@@H](O)[C@H]4[C@H](C)C(=O)C=C[C@@]45C[C@@]35CC[C@]12C)[C@@H](C)CO
11,1.6,74,1.3,C=C(C(=O)[C@H](O)[C@@H](C)[C@H]1[C@@H](OC(C)=O)C[C@@]2(C)[C@@H]3CC[C@H]4[C@H](C)C(=O)C[C@H](O)[C@@]45C[C@@]35CC[C@]12C)[C@@H](C)CO
1.3,1.1,3,–,CC(=O)O[C@H]1C[C@@]2(C)[C@@H]3CC[C@H]4[C@H](C)C(=O)C=C[C@@]45C[C@@]35CC[C@]2(C)[C@H]1[C@H](C)C=O
84,2,24,1.4,C=C(C(=O)[C@H](OC(C)=O)[C@@H](C)[C@H]1[C@@H](OC(C)=O)C[C@@]2(C)[C@@H]3CC[C@H]4[C@H](C)C(=O)C=C[C@]45C[C@]35CC[C@]12C)[C@@H](C)CO
71,1.5,60,1,C=C(C(=O)[C@H](OC(C)=O)[C@@H](C)[C@H]1[C@@H](OC(C)=O)C[C@@]2(C)[C@@H]3CC[C@H]4[C@H](C)C(=O)C=C[C@@]45C[C@@]35CC[C@]12C)[C@H](C)CO
65,2.4,20,–,C=C(C(=O)[C@H](O)[C@@H](C)[C@H]1[C@@H](OC(C)=O)C[C@@]2(C)[C@@H]3CC[C@H]4[C@H](C)C(=O)C=C[C@@]45C[C@@]35CC[C@]12C)C(C)C
5.2,1.1,53,–,CC(=O)O[C@H]1C[C@@]2(C)[C@@H]3CC[C@H]4[C@H](C)C(=O)C=C[C@@]45C[C@@]35CC[C@]2(C)[C@H]1[C@H](C)[C@@H](O)C(=O)C=C(C)C
70,1,31,–,C=C(C(=O)[C@H](OC(C)=O)[C@@H](C)[C@H]1[C@@H](OC(C)=O)C[C@@]2(C)[C@@H]3CC[C@H]4[C@H](C)C(=O)C=C[C@@]45C[C@@]35CC[C@]12C)[C@@H](C)C=O
34,1.1,44,–,CC(=O)O[C@H]1C[C@@]2(C)[C@@H]3CC[C@H]4[C@H](C)C(=O)C=C[C@@]45C[C@@]35CC[C@]2(C)[C@H]1[C@H](C)[C@@H](OC(C)=O)C(=O)C=C(C)C
37,48,4.4,2.1,C=C(C(=O)[C@H](OC(C)=O)[C@@H](C)[C@H]1[C@@H](OC(C)=O)C[C@@]2(C)[C@@H]3CC[C@H]4[C@H](C)C(=O)C=C[C@@]45C[C@@]35CC[C@]12C)[C@@H](C)CO
12,1.2,1.1,–,C=C(C(=O)[C@H](OC(C)=O)[C@@H](C)[C@H]1[C@@H](OC(C)=O)C[C@@]2(C)[C@@H]3CC[C@H]4[C@H](C)C(=O)C=C[C@@]45C[C@@]35CC[C@]12CO)[C@@H](C)CO
48,12,–,1.1,C=C(C(=O)[C@H](OC(C)=O)[C@@H](C)[C@H]1[C@@H](OC(C)=O)C[C@@]2(C)[C@@H]3CC[C@H]4[C@H](C)C(=O)C=C[C@@]45C[C@@]35CC[C@]12C)[C@@H](C)COC(C)=O
74,7.2,19,–,C=C(C(=O)[C@H](OC(C)=O)[C@@H](C)[C@H]1[C@@H](OC(C)=O)C[C@@]2(C)[C@@H]3CC[C@H]4[C@H](C)C(=O)C=C[C@@]45C[C@@]35CC[C@]12C)C(C)C
10,1.2,77,–,C=C(C(=O)[C@H](O)[C@@H](C)[C@H]1[C@@H](OC(C)=O)C[C@@]2(C)[C@@H]3CC[C@H]4[C@H](C)C(=O)CC[C@@]45C[C@@]35CC[C@]12C)[C@@H](C)CO
